This note sets out measurements from paper PMC9963009, “Investigation of the Protective Effect for GcMAF by a Glycosidase Inhibitor and the Glycan Structure of Gc Protein” (Molecules, 2023).

Each structure is given as a SMILES string.

For this test, the target named is T1, α-N-acetylgalactosaminidase (α-GalNAc-ase) from chicken liver (Gallus gallus, UniProt Q90744).
T1 construct: gene NAGA; commercial enzyme from chicken liver
T1 sequence (Q90744 1-405): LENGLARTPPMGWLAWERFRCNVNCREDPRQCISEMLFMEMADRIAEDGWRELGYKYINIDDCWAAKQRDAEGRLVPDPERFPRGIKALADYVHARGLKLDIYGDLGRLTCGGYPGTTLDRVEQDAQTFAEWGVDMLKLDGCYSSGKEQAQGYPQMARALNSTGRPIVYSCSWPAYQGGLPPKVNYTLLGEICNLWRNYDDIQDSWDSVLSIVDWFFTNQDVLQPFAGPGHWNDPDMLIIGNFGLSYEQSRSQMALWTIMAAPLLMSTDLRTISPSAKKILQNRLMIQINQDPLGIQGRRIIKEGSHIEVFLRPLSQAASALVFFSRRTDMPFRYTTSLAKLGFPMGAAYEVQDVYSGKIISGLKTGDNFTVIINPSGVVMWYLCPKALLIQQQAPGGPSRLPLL
In words: LC-MS of Gc protein glycopeptides after treatment with a mix of three glycosidases with/without […] inhibitor. The test is classed as biochemical.

In the case of `OCC1NC(CNCCc2ccccc2)C(O)C1O` (stereo not shown) [iminocyclitol, 2-Hydroxymethyl-5-(phenethylaminomethyl)-pyrrolidine-3,4-diol], the “LC-MS of Gc protein glycopeptides after treatment with a mix of three glycosidas” value was “the inhibitory activity of iminocyclitol against α-GalNAc-ase was also observed (Figure 4c)”.
